Source: ChEMBL document CHEMBL5291721, “A preclinical secondary pharmacology resource illuminates target-adverse drug reaction associations of marketed drugs” (Nat Commun, 2023)

Experiments:
[1] = target: T1, Prostaglandin G/H synthase 1 (Rattus norvegicus, UniProt Q63921); type: functional
T1 sequence (Q63921 whole entry): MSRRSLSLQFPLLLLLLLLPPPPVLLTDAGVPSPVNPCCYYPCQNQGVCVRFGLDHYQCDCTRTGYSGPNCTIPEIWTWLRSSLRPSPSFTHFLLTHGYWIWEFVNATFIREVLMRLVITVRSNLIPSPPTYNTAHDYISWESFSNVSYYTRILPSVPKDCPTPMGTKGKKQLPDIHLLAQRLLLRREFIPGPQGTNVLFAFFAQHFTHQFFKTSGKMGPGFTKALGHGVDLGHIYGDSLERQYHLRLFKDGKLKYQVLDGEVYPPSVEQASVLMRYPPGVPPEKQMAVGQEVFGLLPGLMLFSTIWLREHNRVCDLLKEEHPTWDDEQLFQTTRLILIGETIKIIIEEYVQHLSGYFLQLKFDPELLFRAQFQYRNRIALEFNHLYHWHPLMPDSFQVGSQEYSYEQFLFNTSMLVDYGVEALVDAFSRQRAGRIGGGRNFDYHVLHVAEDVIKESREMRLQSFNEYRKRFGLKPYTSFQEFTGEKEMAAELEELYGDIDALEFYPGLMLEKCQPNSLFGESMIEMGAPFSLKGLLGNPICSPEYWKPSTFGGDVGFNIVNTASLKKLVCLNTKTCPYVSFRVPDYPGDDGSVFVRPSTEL

[2] = target: T2, 5-hydroxytryptamine receptor 2C (Homo sapiens, UniProt P28335)
T2 sequence (P28335 whole entry): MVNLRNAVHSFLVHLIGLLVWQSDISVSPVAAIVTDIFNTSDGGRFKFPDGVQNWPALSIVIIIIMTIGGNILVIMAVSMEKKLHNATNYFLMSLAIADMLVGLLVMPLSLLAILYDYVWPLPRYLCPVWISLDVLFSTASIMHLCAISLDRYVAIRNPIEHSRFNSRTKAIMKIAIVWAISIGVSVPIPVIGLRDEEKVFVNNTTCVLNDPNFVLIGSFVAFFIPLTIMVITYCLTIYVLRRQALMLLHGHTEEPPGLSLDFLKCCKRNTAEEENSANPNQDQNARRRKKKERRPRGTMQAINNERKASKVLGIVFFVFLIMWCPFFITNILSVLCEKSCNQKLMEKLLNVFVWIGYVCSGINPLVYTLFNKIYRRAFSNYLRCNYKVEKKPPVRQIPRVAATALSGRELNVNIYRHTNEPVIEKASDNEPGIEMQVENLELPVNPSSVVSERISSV

[3] = target: Melanocortin receptor 3 (Homo sapiens, UniProt P41968)
Sequence of Melanocortin receptor 3 (P41968 whole entry): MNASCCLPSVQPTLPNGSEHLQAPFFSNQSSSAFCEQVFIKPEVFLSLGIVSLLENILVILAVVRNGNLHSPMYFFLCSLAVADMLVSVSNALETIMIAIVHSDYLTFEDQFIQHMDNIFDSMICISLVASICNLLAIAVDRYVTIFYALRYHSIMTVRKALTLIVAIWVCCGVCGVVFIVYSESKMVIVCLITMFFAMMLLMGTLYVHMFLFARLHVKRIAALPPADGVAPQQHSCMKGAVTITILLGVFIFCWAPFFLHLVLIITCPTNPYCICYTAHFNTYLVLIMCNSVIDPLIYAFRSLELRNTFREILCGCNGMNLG

[4] = target: Gamma-aminobutyric acid receptor subunit alpha-1 (Rattus norvegicus, UniProt P62813); type: functional
Sequence of Gamma-aminobutyric acid receptor subunit alpha-1 (P62813 whole entry): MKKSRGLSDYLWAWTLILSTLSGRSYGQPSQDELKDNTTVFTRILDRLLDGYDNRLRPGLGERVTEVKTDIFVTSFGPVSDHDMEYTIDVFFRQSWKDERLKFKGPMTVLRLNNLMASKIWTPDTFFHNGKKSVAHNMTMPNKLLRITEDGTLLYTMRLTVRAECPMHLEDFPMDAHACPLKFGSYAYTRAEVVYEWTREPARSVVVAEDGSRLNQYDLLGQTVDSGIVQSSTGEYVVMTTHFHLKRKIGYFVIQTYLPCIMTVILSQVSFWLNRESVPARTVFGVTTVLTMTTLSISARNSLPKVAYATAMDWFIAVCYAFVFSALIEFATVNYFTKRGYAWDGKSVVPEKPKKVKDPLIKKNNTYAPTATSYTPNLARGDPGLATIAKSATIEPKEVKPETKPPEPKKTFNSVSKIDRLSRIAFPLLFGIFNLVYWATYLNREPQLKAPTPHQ

[5] = target: Adenosine receptor A2a (Homo sapiens, UniProt P29274)
Sequence of Adenosine receptor A2a (P29274 whole entry): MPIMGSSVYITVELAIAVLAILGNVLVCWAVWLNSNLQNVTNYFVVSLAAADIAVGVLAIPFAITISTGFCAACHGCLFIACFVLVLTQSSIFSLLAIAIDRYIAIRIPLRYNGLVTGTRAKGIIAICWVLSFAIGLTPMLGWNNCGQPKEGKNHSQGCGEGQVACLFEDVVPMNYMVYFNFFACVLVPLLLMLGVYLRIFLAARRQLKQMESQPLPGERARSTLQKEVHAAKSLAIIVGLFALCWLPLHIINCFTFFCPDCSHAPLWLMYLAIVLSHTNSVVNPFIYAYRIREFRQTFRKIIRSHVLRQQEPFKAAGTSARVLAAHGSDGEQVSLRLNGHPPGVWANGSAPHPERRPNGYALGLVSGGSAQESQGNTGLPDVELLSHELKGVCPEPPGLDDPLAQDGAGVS

[6] = target: D(1A) dopamine receptor (Homo sapiens, UniProt P21728); type: functional, cell-based
Sequence of D(1A) dopamine receptor (P21728 whole entry): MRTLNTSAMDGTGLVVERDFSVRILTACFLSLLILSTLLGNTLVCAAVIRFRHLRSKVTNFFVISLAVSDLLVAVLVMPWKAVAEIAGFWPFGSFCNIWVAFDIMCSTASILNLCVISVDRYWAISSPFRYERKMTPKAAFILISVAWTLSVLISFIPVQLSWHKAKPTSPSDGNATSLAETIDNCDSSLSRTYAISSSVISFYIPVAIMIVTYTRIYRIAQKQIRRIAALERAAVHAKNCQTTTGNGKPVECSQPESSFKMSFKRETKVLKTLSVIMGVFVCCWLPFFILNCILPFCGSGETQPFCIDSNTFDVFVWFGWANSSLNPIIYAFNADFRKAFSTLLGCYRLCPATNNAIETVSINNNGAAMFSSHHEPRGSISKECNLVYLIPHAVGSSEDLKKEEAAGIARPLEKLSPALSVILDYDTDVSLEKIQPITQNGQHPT

[7] = target: T3, Adenosine receptor A3 (Homo sapiens, UniProt P0DMS8)
T3 sequence (P0DMS8 whole entry): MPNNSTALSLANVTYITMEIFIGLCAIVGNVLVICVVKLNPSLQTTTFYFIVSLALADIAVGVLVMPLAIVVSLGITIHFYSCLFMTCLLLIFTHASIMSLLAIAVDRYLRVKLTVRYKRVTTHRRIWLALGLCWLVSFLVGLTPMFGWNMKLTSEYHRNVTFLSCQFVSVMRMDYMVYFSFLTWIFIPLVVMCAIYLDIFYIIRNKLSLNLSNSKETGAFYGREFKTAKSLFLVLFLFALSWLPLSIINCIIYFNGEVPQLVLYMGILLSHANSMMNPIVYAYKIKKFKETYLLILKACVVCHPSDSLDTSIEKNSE

[8] = target: Voltage-gated inwardly rectifying potassium channel KCNH2 (Homo sapiens, UniProt Q12809); type: functional; conditions: read-out: AC50
Sequence of Voltage-gated inwardly rectifying potassium channel KCNH2 (Q12809 whole entry): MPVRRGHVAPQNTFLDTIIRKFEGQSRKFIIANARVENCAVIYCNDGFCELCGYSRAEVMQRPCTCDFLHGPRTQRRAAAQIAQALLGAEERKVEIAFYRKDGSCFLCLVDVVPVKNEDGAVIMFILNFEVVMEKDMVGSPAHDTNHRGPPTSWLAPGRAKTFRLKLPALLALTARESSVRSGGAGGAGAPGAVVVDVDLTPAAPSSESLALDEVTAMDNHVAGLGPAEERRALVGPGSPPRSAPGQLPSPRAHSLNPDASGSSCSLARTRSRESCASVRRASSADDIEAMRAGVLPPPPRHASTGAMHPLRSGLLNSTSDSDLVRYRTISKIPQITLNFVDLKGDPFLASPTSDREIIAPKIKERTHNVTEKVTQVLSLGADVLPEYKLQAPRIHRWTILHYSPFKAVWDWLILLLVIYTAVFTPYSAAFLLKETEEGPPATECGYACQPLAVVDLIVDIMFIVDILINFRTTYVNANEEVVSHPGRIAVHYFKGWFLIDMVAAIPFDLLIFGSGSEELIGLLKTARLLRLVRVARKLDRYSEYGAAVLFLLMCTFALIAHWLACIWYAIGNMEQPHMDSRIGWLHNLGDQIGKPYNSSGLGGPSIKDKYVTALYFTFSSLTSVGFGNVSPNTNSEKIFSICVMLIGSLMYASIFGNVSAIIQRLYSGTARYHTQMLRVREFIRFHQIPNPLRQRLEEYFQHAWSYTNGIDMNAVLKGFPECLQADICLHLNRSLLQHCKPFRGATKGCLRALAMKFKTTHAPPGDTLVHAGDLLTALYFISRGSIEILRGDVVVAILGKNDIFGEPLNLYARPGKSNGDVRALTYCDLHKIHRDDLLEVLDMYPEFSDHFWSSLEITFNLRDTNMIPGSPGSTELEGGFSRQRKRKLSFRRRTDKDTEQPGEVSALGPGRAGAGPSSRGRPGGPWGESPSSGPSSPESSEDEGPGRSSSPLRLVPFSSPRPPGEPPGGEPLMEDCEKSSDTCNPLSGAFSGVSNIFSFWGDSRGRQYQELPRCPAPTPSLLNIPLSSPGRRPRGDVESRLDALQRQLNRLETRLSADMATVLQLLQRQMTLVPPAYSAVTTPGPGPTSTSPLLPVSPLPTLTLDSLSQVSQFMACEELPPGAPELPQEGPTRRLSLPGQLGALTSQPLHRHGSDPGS

[9] = target: T4, Adenosine receptor A1 (Homo sapiens, UniProt P30542)
T4 sequence (P30542 whole entry): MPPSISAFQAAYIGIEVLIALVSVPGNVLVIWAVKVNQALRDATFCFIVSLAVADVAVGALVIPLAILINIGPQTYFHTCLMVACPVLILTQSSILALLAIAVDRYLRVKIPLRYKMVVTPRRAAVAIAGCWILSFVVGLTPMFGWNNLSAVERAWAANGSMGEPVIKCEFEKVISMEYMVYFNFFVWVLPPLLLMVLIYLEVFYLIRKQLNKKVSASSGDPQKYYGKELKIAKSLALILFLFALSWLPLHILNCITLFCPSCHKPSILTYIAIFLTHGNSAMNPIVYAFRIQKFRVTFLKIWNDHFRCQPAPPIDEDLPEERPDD

[10] = target: Glutamate receptor ionotropic, NMDA 1 (Rattus norvegicus, UniProt P35439)
[11] = target: Vasopressin V1a receptor (Homo sapiens, UniProt P37288)
Sequence of Vasopressin V1a receptor (P37288 whole entry): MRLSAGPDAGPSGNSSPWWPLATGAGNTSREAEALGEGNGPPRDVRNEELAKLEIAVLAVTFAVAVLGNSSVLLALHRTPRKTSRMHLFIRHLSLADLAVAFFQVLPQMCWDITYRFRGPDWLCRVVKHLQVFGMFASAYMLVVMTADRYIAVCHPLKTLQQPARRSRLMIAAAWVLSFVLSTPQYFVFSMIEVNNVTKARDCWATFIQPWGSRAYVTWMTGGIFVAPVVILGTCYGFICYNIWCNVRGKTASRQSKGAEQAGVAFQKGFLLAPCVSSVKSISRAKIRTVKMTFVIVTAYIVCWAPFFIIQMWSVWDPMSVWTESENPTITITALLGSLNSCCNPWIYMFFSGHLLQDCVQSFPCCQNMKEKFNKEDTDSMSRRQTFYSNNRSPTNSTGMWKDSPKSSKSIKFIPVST
Also: assay procedure not described here.

SMILES | AC50 [1] [µM] | AC50 [2] [µM] | AC50 [3] [µM] | AC50 [4] [µM] | AC50 [5] [µM] | AC50 [6] [µM] | AC50 [7] [µM] | AC50 [8] [µM] | AC50 [9] [µM] | AC50 [10] [µM] | AC50 [11] [µM]
Cc1c(C(=O)NN2CCCCC2)nn(-c2ccc(Cl)cc2Cl)c1-c1ccc(Cl)cc1 [RIMONABANT] | > 30 | > 30 | 15.9 | > 30 | > 30 | > 30 | 3.76 | > 30 | > 30 | > 10 | 30
c1ccc([C@H]2CN3CCSC3=N2)cc1 [LEVAMISOLE] | > 30 | > 30 | > 30 | > 30 | > 30 | 1.6 | > 30 | 18.8 | > 30 | > 30 | > 30
C=CCc1ccccc1OCC(O)CNC(C)C (stereo not drawn) [ALPRENOLOL] | > 30 | > 30 | > 30 | > 30 | > 30 | > 30 | > 30 | 9.1 | > 30 | > 30 | > 30
O=C(O[C@H]1C[C@H]2CC[C@@H](C1)[N+]21CCCC1)C(O)(c1ccccc1)c1ccccc1 [TROSPIUM] | > 30 | > 30 | > 30 | > 30 | > 30 | > 30 | > 30 | 0.63 | > 30 | > 30 | > 30
Nc1nc(NC2CC2)c2ncn([C@H]3C=C[C@@H](CO)C3)c2n1 [ABACAVIR] | > 30 | > 30 | > 30 | > 30 | > 30 | > 30 | > 30 | > 30 | > 30 | > 30 | > 30
NCC(CC(=O)O)c1ccc(Cl)cc1 (stereo not drawn) [BACLOFEN] | > 30 | > 30 | > 30 | > 30 | > 30 | > 30 | 4.2 | > 30 | > 30 | > 10 | > 30
Cc1cn([C@H]2C=C[C@@H](CO)O2)c(=O)[nH]c1=O [STAVUDINE] | > 30 | > 30 | > 30 | > 10 | > 30 | > 10 | > 30 | > 30 | > 30 | > 10 | > 10
CN1C(C(=O)Nc2ccccn2)=C(O)c2sc(Cl)cc2S1(=O)=O [LORNOXICAM] | 22 | > 30 | > 30 | > 10 | > 30 | > 10 | > 30 | > 30 | > 30 | > 10 | > 30
C[C@@H](O)[C@H]1C(=O)N2C(C(=O)O)=C(S[C@@H]3CN[C@H](C(=O)N(C)C)C3)[C@H](C)[C@H]12 [MEROPENEM] | 33.4 | > 300 | > 300 | > 10 | > 300 | > 300 | > 300 | > 30 | > 300 | > 10 | > 300
Clc1ccc2nsnc2c1NC1=NCCN1 [TIZANIDINE] | > 30 | > 30 | > 30 | > 10 | > 30 | > 10 | > 30 | > 30 | > 30 | > 10 | > 10
CC1(C)NC(=O)N(c2ccc([N+](=O)[O-])c(C(F)(F)F)c2)C1=O [NILUTAMIDE] | > 30 | > 30 | > 30 | > 30 | > 30 | > 30 | > 30 | > 30 | > 30 | > 30 | > 30
CC[C@H]1[C@@H](O)[C@@H]2[C@H](CC[C@]3(C)[C@@H]([C@H](C)CCC(=O)O)CC[C@@H]23)[C@@]2(C)CC[C@@H](O)C[C@@H]12 [OBETICHOLIC ACID] | 27 | > 30 | > 30 | > 30 | > 30 | > 30 | 23 | > 30 | > 30 | > 30 | > 30
CO[C@H]1C[C@@H]2CC[C@@H](C)[C@@](O)(O2)C(=O)C(=O)N2CCCC[C@H]2C(=O)O[C@H]([C@H](C)C[C@@H]2CC[C@@H](O)[C@H](OC)C2)CC(=O)[C@H](C)/C=C(\C)[C@@H](O)[C@@H](OC)C(=O)[C@H](C)C[C@H](C)/C=C/C=C/C=C/1C [SIROLIMUS] | > 30 | > 30 | > 30 | > 10 | > 30 | > 10 | 21.3 | > 30 | > 30 | > 10 | > 30
CCC(C)n1ncn(-c2ccc(N3CCN(c4ccc(OCC5COC(Cn6cncn6)(c6ccc(Cl)cc6Cl)O5)cc4)CC3)cc2)c1=O (stereo not drawn) [ITRACONAZOLE] | > 30 | > 30 | > 30 | > 30 | > 30 | > 30 | > 30 | > 30 | > 30 | > 30 | > 30
Nc1ccn([C@H]2CC[C@@H](CO)O2)c(=O)n1 [ZALCITABINE] | > 10 | > 30 | > 10 | > 10 | > 10 | > 10 | > 10 | > 30 | > 10 | > 10 | > 10
NS(=O)(=O)Cc1noc2ccccc12 [ZONISAMIDE] | > 10 | > 30 | > 10 | > 10 | > 10 | > 10 | > 10 | > 30 | > 10 | > 10 | > 10
Cc1cn([C@H]2C[C@H](N=[N+]=[N-])[C@@H](CO)O2)c(=O)[nH]c1=O [ZIDOVUDINE] | > 30 | > 30 | > 30 | > 10 | > 30 | > 10 | > 30 | > 30 | > 30 | > 10 | > 10
CCCCN1C[C@H](O)[C@@H](O)[C@H](O)[C@H]1CO | > 30 | > 30 | > 30 | > 30 | > 30 | > 30 | > 30 | > 30 | > 30 | > 30 | > 30
